Data taken from BindingDB's records for doi:10.1021/jm00053a023 (Monsanto, 1993).

These molecules were tested against endothelin converting enzyme (Oryctolagus cuniculus) (assay: Inhibition of endothelin converting enzyme in an RIA assay using big ET-1 as substrate (value corresponds to <25% inhibition when assayed at a 100 uM screening concentration)).

Row | IC50 [µM] | SMILES
1 | 48 | CC(C)C[C@H](NP(=O)(O)OC1CCCCC1)C(=O)N[C@@H](Cc1c[nH]c2ccccc12)C(=O)O [2-[2-(Cyclohexyloxy-hydroxy-phosphorylamino)-4-methyl-pentanoylamino]-3-(1H-indol-3-yl)-propionic acid]
2 | 109 | CCOP(=O)(O)N[C@@H](CC(C)C)C(=O)N[C@@H](Cc1c[nH]c2ccccc12)C(=O)O [2-[2-(Ethoxy-hydroxy-phosphorylamino)-4-methyl-pentanoylamino]-3-(1H-indol-3-yl)-propionic acid]
3 | 61 | CC(C)C[C@H](NP(=O)(O)Cc1ccccc1)C(=O)N[C@@H](Cc1c[nH]c2ccccc12)C(=O)O [2-[2-(Hydroxy-benzyl-phosphorylamino)-4-methyl-pentanoylamino]-3-(1H-indol-3-yl)-propionic acid]
